Where “and” joins values, the source holds several entries; their conditions need not be identical. Identical values can stand only once.
Assays:
Format in all cases: cell-based
[1] = test system: HacaT keratinocyte cell line; test: Cell growth assay, HacaT keratinocyte cell line
Description: (§1) The effect of the addition of MPC vs. (MPC+IDP4), GPVE vs. (GPVE+IDP4), and GPVE/MPC vs. (GPVE/MPC=IDP4) on the growth of the following cells was investigated: • 1. HacaT keratinocyte cell line • 2. NIH3T3 fibroblast cell line • 3. MSC (mesenchymal stem cells).
(§2) Method: • (1) Cell seeding • (2) Starvation for 24 h with serum-free DMEM media • (3) Sample treatment • (4) Cultivation for 72 h • (5) Cell harvesting • (6) Cell growth assay

[2] = test system: NIH3T3 fibroblast cell line; test: Cell growth assay, NIH3T3 fibroblast cell line
Description: as §1, §2

[3] = test system: MSC (mesenchymal stem cells); test: Cell growth assay, mesenchymal stem cells
Description: as §1, §2

[4] = test system: NIH3T3 fibroblast cell line; test: ECM expression (ELISA): procollagen expression by fibroblast cells; conditions: control = 100
Description: (§3) The effect of the addition of MPC and MPC+IDP4 on the extracellular matrix expression of procollagen, fibronectin, elastin, hyaluronic acid and laminine by the following cells was investigated: • 1. HacaT keratinocyte cell line (hyaluronic acid, laminine) • 2. NIH3T3 fibroblast cell line (procollagen, fibronectin, elastin).
(§4) Method: • (1) Cell seeding • (2) Starvation for 24 h with serum-free DMEM media • (3) Sample treatment • (4) Cultivation for 72 h • (5) Cell supernatant collection • (6) Assay
(§5) Assay (ELISA): • (a) Coating with capture antibody • (b) Blocking (blocking solution) • (c) Aspiration and washing each well five times • (d) Addition of sample and standard to each well • (e) Aspiration and washing each well five times • (f) Addition of conjugate to each well • (g) Aspiration and washing each well five times • (h) Addition of substrate solution to each well • (i) Addition of stop solution to each well • (j) Reading of optical density at 450 nm
as §3, with “GPVE” for “MPC”, “GPVE+IDP4” for “MPC+IDP4”
as §3, with “GPVE/MPC” for “the addition of MPC”, “GPVE/MPC+IDP4” for “MPC+IDP4”

[5] = test system: NIH3T3 fibroblast cell line; test: ECM expression (ELISA): fibronectin expression by fibroblast cells; conditions: control = 100
Description: as §3, §4, §5
as §3, with “GPVE” for “MPC”, “GPVE+IDP4” for “MPC+IDP4”
as §3, with “GPVE/MPC” for “the addition of MPC”, “GPVE/MPC+IDP4” for “MPC+IDP4”

[6] = test system: NIH3T3 fibroblast cell line; test: ECM expression (ELISA): elastin expression by fibroblast cells; conditions: control = 100
Description: as §3, §4, §5
as §3, with “GPVE” for “MPC”, “GPVE+IDP4” for “MPC+IDP4”
as §3, with “GPVE/MPC” for “the addition of MPC”, “GPVE/MPC+IDP4” for “MPC+IDP4”

[7] = test system: HacaT keratinocyte cell line; test: ECM expression (ELISA): hyaluronic acid expression by keratinocyte cells; conditions: control = 100
Description: Method: • (1) Cell seeding • (2) Starvation for 24 h with serum-free DMEM media • (3) Sample treatment • (4) Cultivation for 72 h • (5) Cell supernatant collection • (6) Assay […]

[8] = test system: HacaT keratinocyte cell line; test: ECM expression (ELISA): laminine expression by keratinocyte cells; conditions: control = 100
Description: as §3, §4, §5
as §3, with “GPVE” for “MPC”, “GPVE+IDP4” for “MPC+IDP4”
as §3, with “GPVE/MPC” for “the addition of MPC”, “GPVE/MPC+IDP4” for “MPC+IDP4”

mesenchymal stem cells = test: Protective effect against H2O2 (anti-apoptosis effect); conditions: W/O H2O2; With H2O2 0% MPC = 100
Description: The protective (anti-apoptosis) effect of the addition of MPC and MPC+IDP4 on mesenchymal stem cells against H2O2 (free radical former) was tested.
Method: • (1) Cell seeding • (2) Starvation for 24 h with serum-free DMEM media • (3) Sample treatment • (4) Cultivation for 24 h • (5) Treatment with 5 mM H2O2 • (6) Incubation for 24 h • (7) Cell growth assay

[9] = alone at the concentration employed (1 μg)

## oligopeptide-21 [IDP4]
[1]; 10 μg/ml, control = 100
  growth, Haca T (%): 148%
[1]; [9]
  significance of increase in growth, keratinocyte cell line: did not afford any statistically significant increase in growth
[2]; 10 μg/ml, control = 100
  growth, NIH3T3 (%): 260%
[2]; [9]
  significance of increase in growth, fibroblast cell line: did not afford any statistically significant increase in growth
[3]; 10 μg/ml, control = 100
  growth, MSC (%): 145%
[3]; [9]
  significance of increase in growth, mesenchymal stem cells: did not afford any statistically significant increase in growth
[4]; 10 ng/ml
  procollagen %: 175%
[4]; 100 ng/ml
  procollagen %: 226%
[4]; 1 μg/ml
  procollagen %: 302%
[4]; 10 μg/ml
  procollagen %: 333%
[5]; 10 ng/ml
  fibronectin %: 101%
[5]; 100 ng/ml
  fibronectin %: 105%
[5]; 1 μg/ml
  fibronectin %: 116%
[5]; 10 μg/ml
  fibronectin %: 158%
[6]; 10 ng/ml
  elastin %: 131%
[6]; 100 ng/ml
  elastin %: 127%
[6]; 1 μg/ml
  elastin %: 137%
[6]; 10 μg/ml
  elastin %: 131% and 137%
[7]; 10 ng/ml
  hyaluronic acid %: 110%
[7]; 100 ng/ml
  hyaluronic acid %: 137.5%
[7]; 1 μg/ml
  hyaluronic acid %: 150%
[7]; 10 μg/ml
  hyaluronic acid %: 160%
[8]; 10 ng/ml
  laminine %: 115%
[8]; 100 ng/ml
  laminine %: 135%
[8]; 1 μg/ml
  laminine %: 175%
[8]; 10 μg/ml
  laminine %: 177.5%
Mesenchymal stem cells
  cell growth, MSC: 175

From US9610463B2, “Cosmetic or dermatological preparation comprising collagen, chitosan, glycosylaminoglycan and cell growth promoting peptide and/or cellular complex” (BEIERSDORF AG, priority 2009, dated 2017)
